Results reported in US20180325840A1, “COMPOSITIONS AND METHODS FOR PREVENTING OR TREATING FATTY PANCREAS OR AMELIORATING PANCREAS DISEASES CAUSED BY FATTY PANCREAS, DIABETES MELLITUS OR OTHER RELATED DISORDERS” (NATIONAL DEFENSE EDUCATION AND RESEARCH FOUNDATION, priority 2015, published 2018).

Legend:
Assay type in all cases: in vivo
B6 mice [1] = assay: Blood glucose analysis (GLU) in high-fat diet mice; conditions: for GLU: fasted overnight, 4 weeks of administration; for effect on GLU (in words): single test compound
Description: (§1) The experimental animals employed were B6 mice. The number of test animals in each group of the pre-test was four or more, and the number of test animals in each group of the confirmation test was twelve or more. Male mice having a weight of 18 to 23 g were bred in an animal room with a normal light and dark cycle (7:00 am to 7:00 pm being the bright period, and the rest being the dark period) at a temperature of 23±2° C. and a relative humidity of 55±15%. After the animals were purchased from Lesco Biotech Co., Ltd. (Taipei) and housed at the National Defense Animal Center, the animal experiments were conducted following the Experimental Guide of National Health Research Institute. First, the animals were fed with 3-5 grams of general diet daily, and the water was supplied infinitely. After 1 to 2 weeks of breeding, the healthy state was observed. The body weight was recorded once a week.
(§2) The test animals were randomly grouped into blank control (Blank), high-fat control (HFD), positive control (PS), and test group. The blank control was given a normal diet; the high-fat control was given a high-fat diet; the positive control was given a high-fat diet and tube fed with silymarin (5 mg/kg/day) (Iranian Journal of Pharmaceutical Research (2016), 15 (3): 493-500; Life Sciences 75 (2004) 2167-2180; and Pharm Biol. 2016 Jul. 8:1-6); and the test group was given a high-fat diet and tube fed with the test ingredient individually.
(§3) The blank control was fed with a normal diet arbitrarily for 12 weeks. The high-fat control, the positive control, and the test group were fed with a high-fat diet arbitrarily for 12 weeks. After 8 weeks of feeding, the blank control and the high-fat control were tube fed with deionized water once a day. The positive control was tube fed with silymarin once a day. The test group was tube fed with test compound(s) once a day for 4 weeks.
1.4.2 Analysis of Biochemical Functions of the Pancreas: Blood Glucose Analysis (GLU)
Blood glucose analysis was performed with Roche's ACCU-CHEK Active blood glucose meter. One day before blood collection, mice were fasted overnight. The code card of the blood glucose test paper was inserted into the blood glucose meter, and then the blood glucose test paper was inserted. After the blood drop pattern appeared on the meter, a drop of blood was taken from in vein at the cheek of the mouse with a buccal needle and then dropped into the blood glucose test paper. The blood glucose data shown on the blood glucose meter were recorded.
(§4) All data were expressed as mean±standard deviation (SD), and the test results were calculated using the ANOVA test method to determine whether there was a statistically significant difference by using the Statistical Package of the Social Science program (Version 13, SPSS Inc.) software package. Subsequently, post hoc test least significant difference method was used to perform multiple comparisons to confirm the significant differences between the groups. The significant difference between the averages of the groups was p<0.05.

B6 mice [2] = assay: Triglyceride (TG) and total cholesterol (TC) in pancreatic tissue of high-fat diet mice; conditions: 4 weeks of administration
Description: as §1, §2, §3
1.4.6 Analysis of Triglyceride (TG) and Total Cholesterol (TCHO, TC) in Pancreatic Tissue
After the mice were sacrificed, the pancreas was taken out and weighed to compare the ratios of pancreas weight to body weight. The remaining pancreas was frozen and preserved, and the contents of triglyceride and the total cholesterol in the pancreas were measured.
as §4

B6 mice [3] = assay: Serum (plasma) triglyceride (TG) in high-fat diet mice; conditions: for TG (plasma triglyceride): 4 weeks of administration
Description: as §1, §2, §3
Before the start of the test and at the 8th and 12th week after the start of the test, blood was collected from the cheek or heart. All the animals were weighed and then sacrificed at the end of the test, and blood was collected from the cheek or heart again. The blood samples of mice were allowed to stand at room temperature for 1 hour to coagulate, and then centrifuged at 15,700×g by a frozen centrifuge at 4° C. for 5 minutes to separate the serum.
1.4.1 Analysis of Serum Triglyceride (TG) and Total Cholesterol (TCHO, TC)
Triglyceride (TG) and total cholesterol (TCHO, TC) in the serum were measured by the automatic blood biochemical analyzer.
as §4

B6 mice [4] = assay: Fasting insulin concentration (ELISA) in high-fat diet mice; conditions: for fasting insulin concentration: 4 weeks of administration; for effect on fasting insulin concentration (in words): single test compound
Description: as §1, §2, §3
1.4.4 Analysis of Biochemical Functions of the Pancreas: Analysis of Fasting Insulin Concentration
At the end of the test (at the twelfth week), the mice were fasted to collect the blood following the operation instructions of the mouse ultrasensitive insulin ELISA kit (ALPCO).
as §4

B6 mice [5] = assay: Homeostasis model assessment of insulin resistance (HOMA-IR) in high-fat diet mice; conditions: for HOMA-IR: 4 weeks of administration; for effect on insulin resistance (in words): single test compound
Description: as §1, §2, §3
1.4.5 Analysis of Biochemical Functions of the Pancreas: Homeostasis Model Assessment of Insulin Resistance (HOMA-IR)
The mice were fasted to collect the blood at the end of the test (at the twelfth week), and the concentrations of blood glucose and insulin were measured and calculated according to the following formula: […]
as §4

B6 mice [6] = assay: Intraperitoneal glucose tolerance test (IPGTT) in high-fat diet mice; conditions: for AUC of IPGTT: 2 g/kg glucose IP, blood glucose vs. time, 4 weeks of administration; for effect on sugar tolerance (IPGTT, in words): single test compound
Description: as §1, with “Male mice having a weight of 18 to 23 g were bred in an animal room with a normal light and dark cycle (7:00 am to 7:00 pm being the bright period, and the rest being the dark period) at a temperature of 23±2° C. and a relative humidity of 55±15%.” left out
The test animals were randomly grouped into blank control (Blank), high-fat control (HFD), positive control (PS), and test group.
as §3
1.4.3 Analysis of Biochemical Functions of the Pancreas: Intraperitoneal Glucose Tolerance Test (IPGTT)
The mice were moved into a clean cage and fasted overnight. There was no food or feces at the feeding funnel or the bottom of the clean cage to ensure that the animals may get drinking water at all times. The body weight of the mice was measured, and the volume of the glucose solution required for intraperitoneone (IP) injection was calculated (based on a concentration of 250 mg/mL and 2 g of glucose per kg of mouse weight, the volume (μl) required would be 8× body weight (g)). The mice were moved out and injected intraperitoneally with an appropriate amount of glucose solution, and the injection time was recorded. Blood samples were taken from the tail of the mice at 0, 15, 30, 60, 120 and 150 minutes after the glucose solution was injected. The concentration of blood glucose was measured, and the blood glucose analysis was performed using the Roche's ACCU-CHEK Active blood glucose meter.
as §4

Structure (SMILES) | GLU (B6 mice [1]; 1.5 mg/kg) [mg/dL] | effect on GLU (in words) (B6 mice [1]) | pancreatic TC (B6 mice [2]; 1.5 mg/kg tube fed once a day) [mg/g pancreatic tissue] | pancreatic TG (B6 mice [2]; 1.5 mg/kg tube fed once a day) [mg/g pancreatic tissue] | TG (plasma triglyceride) (B6 mice [3]; 1.5 mg/kg) [mg/dL] | fasting insulin concentration (B6 mice [4]; 1.5 mg/kg) [ng/mL] | effect on fasting insulin concentration (in words) (B6 mice [4]) | HOMA-IR (B6 mice [5]; 1.5 mg/kg) | effect on insulin resistance (in words) (B6 mice [5]) | AUC of IPGTT (B6 mice [6]; 1.5 mg/kg) [g·h/dL] | effect on sugar tolerance (IPGTT, in words) (B6 mice [6]) | pancreatic TC (B6 mice [2]; 2.5 mg/kg tube fed once a day) [mg/g pancreatic tissue] | pancreatic TG (B6 mice [2]; 2.5 mg/kg tube fed once a day) [mg/g pancreatic tissue] | TG (plasma triglyceride) (B6 mice [3]; 2.5 mg/kg) [mg/dL] | other results
O=C1NS(=O)(=O)c2ccccc21 [saccharin] | 92.0 ± 9.6 | significantly reduce | 3.0 ± 0.8 | 4.7 ± 2.9 | 142.6 ± 34.6 | 1.3 ± 1.1 | significantly reduce | 0.3 ± 0.3 | significantly reduce | 41.9 ± 6.2 | significantly reduce |  |  |  | 
O=c1c(-c2ccc(O)cc2)coc2c([C@@H]3O[C@H](CO)[C@@H](O)[C@H](O)[C@H]3O)c(O)ccc12 [puerarin] |  |  |  |  |  |  | significantly reduce |  | significantly reduce |  | significantly reduce | 4.0 ± 1.2 | 17.3 ± 13.4 | 166.7 ± 22.0 | GLU (B6 mice [1]; 2.5 mg/kg): 172.3 ± 22.2 mg/dL; fasting insulin concentration (B6 mice [4]; 2.5 mg/kg): 0.9 ± 0.3 ng/mL; HOMA-IR (B6 mice [5]; 2.5 mg/kg): 0.4 ± 0.2; AUC of IPGTT (B6 mice [6]; 2.5 mg/kg): 45.1 ± 11.2 g·h/dL
OC[C@@H](O)[C@@H](O)[C@H](O)[C@H](O)CO [mannitol] | 112.2 ± 32.0 | significantly reduce | 3.7 ± 1.0 | 12.6 ± 7.5 | 158.9 ± 48.9 | 1.1 ± 0.4 | significantly reduce | 0.3 ± 0.1 | significantly reduce | 42.7 ± 1.7 | significantly reduce |  |  |  | pancreatic TC (B6 mice [2]; 4.5 mg/kg tube fed once a day): 3.3 ± 0.7 mg/g pancreatic tissue; pancreatic TG (B6 mice [2]; 4.5 mg/kg tube fed once a day): 9.6 ± 5.1 mg/g pancreatic tissue; pancreatic TC (B6 mice [2]; 7.5 mg/kg tube fed once a day): 3.1 ± 0.3 mg/g pancreatic tissue; pancreatic TG (B6 mice [2]; 7.5 mg/kg tube fed once a day): 4.7 ± 4.0 mg/g pancreatic tissue; TG (plasma triglyceride) (B6 mice [3]; 4.5 mg/kg): 180.1 ± 46.7 mg/dL; TG (plasma triglyceride) (B6 mice [3]; 7.5 mg/kg): 163.9 ± 31.9 mg/dL
O=C1C[C@@H](c2ccc(O)c(O)c2)Oc2cc(O)cc(O)c21 [eriodictyol] |  |  |  |  |  |  | significantly reduce |  | significantly reduce |  | significantly reduce | 3.5 ± 0.6 | 4.5 ± 2.8 | 135.4 ± 43.4 | GLU (B6 mice [1]; 2.5 mg/kg): 219.0 ± 35.6 mg/dL; TG (plasma triglyceride) (B6 mice [3]; 5.0 mg/kg): 143.2 ± 15.1 mg/dL; effect on triglyceride in plasma (in words) (B6 mice [3]; as compared with the high-fat control): significantly reduce; fasting insulin concentration (B6 mice [4]; 2.5 mg/kg): 1.1 ± 0.4 ng/mL; HOMA-IR (B6 mice [5]; 2.5 mg/kg): 0.6 ± 0.2; AUC of IPGTT (B6 mice [6]; 2.5 mg/kg): 41.9 ± 5.9 g·h/dL
COc1ccc([C@@H]2CC(=O)c3c(O)cc(O)cc3O2)cc1O [hesperitin] |  |  |  |  |  |  |  |  |  |  |  | 4.4 ± 0.7 | 5.7 ± 1.6 | 190.1 ± 25.9 | 
OC[C@H]1O[C@H](O[C@]2(CCl)O[C@H](CCl)[C@@H](O)[C@@H]2O)[C@H](O)[C@@H](O)[C@H]1Cl [sucralose] | 128.7 ± 19.3 | significantly reduce | 4.2 ± 0.5 | 8.1 ± 5.6 | 126.9 ± 43.3 | 1.3 ± 0.5 | significantly reduce | 0.4 ± 0.2 | significantly reduce | 44.2 ± 3.7 | significantly reduce |  |  |  | pancreatic TC (B6 mice [2]; 7.5 mg/kg tube fed once a day): 3.1 ± 0.4 mg/g pancreatic tissue; pancreatic TG (B6 mice [2]; 7.5 mg/kg tube fed once a day): 5.2 ± 2.1 mg/g pancreatic tissue; TG (plasma triglyceride) (B6 mice [3]; 7.5 mg/kg): 186.9 ± 17.2 mg/dL
CC1CCC(C(C)C)C(O)C1 (stereo not drawn) [menthol] | 125.7 ± 33.5 | significantly reduce | 4.4 ± 0.9 | 18.1 ± 18.3 | 173.7 ± 56.7 | 1.2 ± 0.8 | significantly reduce | 0.4 ± 0.4 | significantly reduce | 45.6 ± 4.8 | significantly reduce |  |  |  | 
